Data set [1] can be described thus: Cytotoxicity on primary cell culture (flow cytometry, PI). Type of data set: cell-based. The note with it: Balb/c, mouse, primary splenocytes (spleen cells), ± SD, read-out: Cytotoxic activity on spleen cells (CC50). The procedure:
The cytotoxicity of the natural sesquiterpenes (1–3) and derivatives (4–19) was determined on primary cell cultures (splenocytes obtained from Balb/c mouse). […] Derivatives of tessaric acid have shown an improvement in CC50 values in comparison with the natural sesquiterpene 1. […] All the derivatives synthesized from alcohol ilicic (compounds 10–19) were more toxic to mammalian cells than the natural compound (3).
The cytotoxicity of the compounds was evaluated on splenocytes obtained from Balb/c mouse (1.5 × 10^5) and incubated with different drug dilutions (5–200 μg/mL) as previously described. Cell death was determined by flow cytometry using a BD FACSaria II cytometer. Cells incubated only with drug vehicle were used as 100% viability control, and death percentage was calculated according to the following formula: Death%=1−(%PI^−cells)drug−treated/(%PI^−cells)100% viability control × 100
The concentration capable of causing 50% cell death (CC50) was determined using a non-linear regression approach.

The subject of data set [2] is Trypanosoma cruzi epimastigotes (RA strain). The experiment in a line: In vitro anti-Trypanosoma cruzi assay ((3H) thymidine uptake). Conditions: for Selectivity Index on T. cruzi epimastigotes: CC50 splenocytes / IC50 epimastigotes; for IC50: epimastigotes (RA strain), ± SD. Type of data set: cell-based. The procedure: Trypanosoma cruzi epimastigotes (RA strain, from discrete typing unit (DTU) VI) were grown in a biphasic medium. Cultures were maintained by weekly passages at 28 °C [18].
The growth inhibition of T. cruzi epimastigotes was evaluated by a (^3H) thymidine uptake assay as previously described. Natural sesquiterpenes and derivatives were evaluated at concentrations ranging from 1.5 to 50 µg/mL. Benznidazole (Active Pharmaceutical Ingredient) was used as positive control (Elea). The percentage of inhibition was calculated as 100 = {((cpm of treated parasites)/(cpm of untreated parasites)) × 100}.
Figure 5 Effect of the natural sesquiterpene tessaric acid (1), ilicic acid (2), and ilicic alcohol (3) and their derivatives on T. cruzi. Epimastigotes (RA strain) were cultured in the presence of the compounds (50–1.5 µg/mL). Determinations were performed by triplicate. The results are expressed as the mean ± SD. (A) Effect of tessaric acid and derivatives on epimastigotes; (B) Effect of ilicic acid and derivatives on epimastigotes; (C) Effect of ilicic alcohol and derivatives on epimastigotes.

A further data set relates to T-47D. The experiment in a line: Antiproliferative SRB assay (NCI protocol), T-47D. Type of data set: cell-based, human. Conditions: for Selectivity index (SI) on tumor cells: CC50 splenocytes / GI50 T-47D; for GI50: Homo sapiens, T47D, T-47D (breast), 48 h drug exposure, SRB, ± SD. The procedure: (§1) In vitro antiproliferative activity was evaluated using the protocol of the National Cancer Institute (NCI) after 48 h of drug exposure using the sulforhodamine B (SRB) assay.
(§2) The following human solid tumor cell lines were used in this study: HBL-100 (breast), HeLa (cervix), SW1573 (non-small cell lung), T-47D (breast), A549 (lung), and WiDr (colon). These cell lines were a kind gift from Prof. G. J. Peters (VU Medical Center, Amsterdam, The Netherlands). Cells were maintained in 25 cm^2 culture flasks in RPMI 1640 supplemented with 5% heat-inactivated fetal calf serum and 2 mM L-glutamine in a 37 °C, 5% CO2, 95% humidified air incubator. Exponentially growing cells were trypsinized and resuspended in antibiotic containing medium (100 units penicillin G and 0.1 mg of streptomycin per mL). Single cell suspensions displaying > 97% viability by trypan blue dye exclusion test were subsequently counted. After counting, dilutions were made to give the appropriate cell densities for inoculation onto 96-well microtiter plates. Cells were inoculated in a volume of 100 μL per well at densities of 5000 (WiDr and T-47D), and 2500 (A549, HeLa, SW1573 and HBL-100) cells per well, based on their doubling times.
(§3) Chemosensitivity tests were performed using the SRB assay of the NCI with slight modifications. Briefly, pure compounds were initially dissolved in DMSO at 400 times the desired final maximum test concentration. Control cells were exposed to an equivalent concentration of DMSO (0.25% v/v, negative control). Each agent was tested in triplicates at different dilutions in the range 1–100 μM. Drug treatment started on day 1 after plating. Drug incubation periods were 48 h, after which cells were precipitated with 25 μL of ice-cold 50% (w/v) trichloroacetic acid and fixed for 60 min at 4 °C. Then, the SRB assay was performed. The optical density (OD) of each well was measured at 530 nm, using BioTek’s PowerWave XS Absorbance Microplate Reader. Values were corrected for background OD from wells containing only culture medium. The percentage growth (PG) was calculated with respect to untreated control cells (C) at each level of drug concentrations based on the difference in OD at the start time (T0) and at the end of drug exposure (T), according to NCI formulas. Therefore, if T is greater than or equal to T0, the calculation is 100 × ((T − T0)/(C − T0)). If T is lower than T0, denoting cell death, the calculation is 100 × ((T − T0)/(T0)). The effect is defined as the growth percentage, where 50% growth inhibition (GI50) represents the concentration at which PG is +50. Based on these calculations, a PG value of 0 corresponds to the number of cells present at the beginning of drug exposure, while negative PG values denote net cell death.

The next data set concerns SW1573. Briefly: Antiproliferative SRB assay (NCI protocol), SW1573. Type of data set: cell-based, human. Conditions: for Selectivity index (SI) on tumor cells: CC50 splenocytes / GI50 SW1573; for GI50: Homo sapiens, SW1573 (non-small cell lung), 48 h drug exposure, SRB, ± SD. As for the experimental part:
as §1, §2, §3

Another data set has as its system HBL-100. Briefly: Antiproliferative SRB assay (NCI protocol), HBL-100. Type of data set: cell-based, human. Conditions: for Selectivity index (SI) on tumor cells: CC50 splenocytes / GI50 HBL-100; for GI50: Homo sapiens, HBL-100 (breast), 48 h drug exposure, SRB, ± SD. As for the experimental part:
as §1, §2, §3
(In general: Sulforhodamine B stains cellular protein and so reports cell mass.)

A further data set relates to A549. Briefly: Antiproliferative SRB assay (NCI protocol), A549. Type of data set: cell-based, human. The note with it: for Selectivity index (SI) on tumor cells: CC50 splenocytes / GI50 A549; for GI50: Homo sapiens, A549 (lung), 48 h drug exposure, SRB, ± SD. As for the experimental part: as §1, §2, §3
In data set [3] the test system is HeLa, T-47D, WiDr, A549, HBL-100, and SW1573 cell lines. Briefly: Antiproliferative SRB assay, whole panel of human solid tumor cell lines. Type of data set: cell-based. Conditions: Homo sapiens; minimal to maximal GI50 across the cell lines tested, 48 h, SRB; read-out: GI50 values, range over all cell lines tested. As for the experimental part: as §1, §2, §3
For a further data set, the system named is HeLa. Briefly: Antiproliferative SRB assay (NCI protocol), HeLa. Type of data set: cell-based, human. The note with it: for Selectivity index (SI) on tumor cells: CC50 splenocytes / GI50 HeLa; for GI50: Homo sapiens, HeLa (cervix), 48 h drug exposure, SRB, ± SD. As for the experimental part:
as §1, §2, §3

In another data set the test system is WiDr. Briefly: Antiproliferative SRB assay (NCI protocol), WiDr. Type of data set: cell-based, human. The note with it: for Selectivity index (SI) on tumor cells: CC50 splenocytes / GI50 WiDr; for GI50: Homo sapiens, WiDr (colon), 48 h drug exposure, SRB, ± SD. The procedure: as §1, §2, §3

SMILES strings stand for the structures.

For orientation: CC50 means the concentration that lowers cell viability or growth by half. For orientation: IC50 means the concentration that gives 50% inhibition. Read a high IC50 as weaker potency. By GI50 is commonly meant the concentration giving 50% growth inhibition. With `C=C(C(=O)N(Cc1ccccc1)C(C)(C)C(=O)NCc1ccccc1)[C@@H]1CCC2=CC(=O)C[C@H](C)[C@@]2(C)C1` [Compound 7], the CC50 in data set [1] is 38.1 µM. Moreover, the “Selectivity Index on T. cruzi epimastigotes” value in data set [2] was found to be 8.0. The IC50 in data set [2] (Trypanosoma cruzi) amounted to 9.3 µM; in data set [2], 4.7 µM. In addition, the “Selectivity index (SI) on tumor cells” value in the data set on T-47D amounted to 1.7; with SW1573, 1.3; in the data set on HBL-100, 0.9; with A549 it was 1.4; with HeLa, 2.0; with WiDr, 1.0. Further, the concentration for 50% growth inhibition (GI50) is 22 µM with T-47D; 30 µM in the data set on SW1573; 41 µM in the data set with HBL-100; 27 µM with A549; 17 to 64 µM in data set [3]; 19 µM with HeLa. Moreover, growth with WiDr was halved (GI50) at 37 µM.
Regarding `C=C(C(=O)N(c1ccccc1)C(C)(C)C(=O)NC1CCCCC1)[C@@H]1CCC2=CC(=O)C[C@H](C)[C@@]2(C)C1` [Compound 8], in data set [1], the CC50 was 19.8 µM. In addition, the “Selectivity Index on T. cruzi epimastigotes” value in data set [2] turned out to be 0.3. In data set [2] (Trypanosoma cruzi), this molecule returned a concentration for half-maximal inhibition (IC50) of 63.2 µM. Further, the “Selectivity index (SI) on tumor cells” value in the data set on T-47D was found to be 0.7; in the data set with SW1573, 0.7; in the data set on HBL-100, 0.5; in the data set with A549 it was 0.7; with HeLa, 0.6; in the data set on WiDr it was 0.7. Moreover, the GI50 is 27 µM with T-47D; 30 µM in the data set with SW1573; 37 µM with HBL-100; 27 µM in the data set on A549; 17 to 64 µM in [3]; 31 µM in the data set on HeLa. Further, in the data set with WiDr, the concentration for 50% growth inhibition (GI50) was 30 µM.
In the case of `C=C(C(=O)N(Cc1ccccc1)C(C)(C)C(=O)NC1CCCCC1)[C@@H]1CCC2=CC(=O)C[C@H](C)[C@@]2(C)C1` [Compound 9], in data set [1], the CC50 was 76.5 µM. Besides, the “Selectivity Index on T. cruzi epimastigotes” value in [2] turned out to be 1.7. In data set [2] (Trypanosoma cruzi), this molecule registered a half-maximal inhibitory concentration (IC50) of 45.1 µM. In addition, the “Selectivity index (SI) on tumor cells” value in the data set on T-47D was 3.6; with SW1573 it was 2.6; with HBL-100 it was 1.6; in the data set with A549, 2.7; with HeLa it was 3.2; in the data set with WiDr, 2.0. Further, the 50% growth inhibitory concentration (GI50) with T-47D is 21 µM; with SW1573 it was 30 µM; in the data set with HBL-100, 47 µM; with A549, 28 µM; in data set [3] it was 17 to 64 µM; with HeLa it was 24 µM. Moreover, it took 39 µM to inhibit growth in the data set on WiDr by half (GI50).
Turning to `C=C(C(=O)N(c1ccccc1)C(C)(C)C(=O)NC(C)(C)C)C1CCC2(C)CCCC(C)(O)C2C1` (stereo not shown) [Compound 10], the half-maximal cytotoxic concentration (CC50) in data set [1] came out at 78.2 µM. Further, the “Selectivity Index on T. cruzi epimastigotes” value in data set [2] was determined as 4.0. The IC50 in data set [2] (Trypanosoma cruzi) turned out to be 19.6 µM. Further, the “Selectivity index (SI) on tumor cells” value in the data set on T-47D worked out at 2.2; with SW1573, 1.6; with HBL-100, 1.2; in the data set on A549, 2.5; with HeLa, 2.1; in the data set with WiDr, 1.7. Further, the concentration for 50% growth inhibition (GI50) in the data set with T-47D is 36 µM; in the data set with SW1573 it was 50 µM; in the data set with HBL-100 it was 64 µM; in the data set on A549 it was 31 µM; in [3] it was 17 to 64 µM; in the data set with HeLa, 37 µM. In the data set on WiDr, it took 45 µM to inhibit growth by half (GI50).
For the molecule `C=C(C(=O)N(Cc1ccccc1)C(C)(C)C(=O)NC(C)(C)C)C1CCC2(C)CCCC(C)(O)C2C1` (stereo not shown) [Compound 11], in [1], the CC50 came out at 334 µM. For the same molecule, the “Selectivity Index on T. cruzi epimastigotes” value in data set [2] was 12.6. This molecule also gave an IC50 in data set [2] (Trypanosoma cruzi) of 26.1 µM. The “Selectivity index (SI) on tumor cells” value with T-47D came to 14.5; in the data set with SW1573 it was 10.1; in the data set on HBL-100, 10.1; in the data set on A549 it was 16.7; with HeLa, 17.6; in the data set on WiDr, 11.5. Moreover, the 50% growth inhibitory concentration (GI50) was 23 µM with T-47D; 33 µM in the data set with SW1573; 33 µM with HBL-100; 20 µM with A549; 17 to 64 µM in [3]; 19 µM in the data set with HeLa. Moreover, the 50% growth inhibitory concentration (GI50) with WiDr was 29 µM.
Consider `C=C(C(=O)N(c1ccccc1)C(C)(C)C(=O)NCc1ccccc1)C1CCC2(C)CCCC(C)(O)C2C1` (stereo not shown) [Compound 12], for which the CC50 in [1] was 64.3 µM. For the same molecule, the “Selectivity Index on T. cruzi epimastigotes” value in data set [2] was determined as 8.0. In [2] (Trypanosoma cruzi), this molecule showed an IC50 of 8 µM. Moreover, the “Selectivity index (SI) on tumor cells” value is 3.2 with T-47D; 2.4 in the data set with SW1573; 3.2 in the data set on HBL-100; 2.9 in the data set with A549; 3.8 in the data set with HeLa; 2.7 in the data set with WiDr. Besides, the GI50 in the data set on T-47D is 20 µM; with SW1573 it was 27 µM; in the data set on HBL-100 it was 20 µM; in the data set with A549, 22 µM; in data set [3], 17 to 64 µM; in the data set with HeLa, 17 µM. Moreover, halving of growth in the data set with WiDr (GI50) required 24 µM.
